The source of these data is patent US11351178B2, “Selective HDAC6 inhibitors” (ITALFARMACO S.P.A., priority 2017, dated 2022).

The structures appear in SMILES notation. pIC50: −log10 of the molar value.

One data set deals with T1, recombinant human HDAC6 (Homo sapiens, UniProt Q9UBN7).
T1 sequence (Q9UBN7 1-1215): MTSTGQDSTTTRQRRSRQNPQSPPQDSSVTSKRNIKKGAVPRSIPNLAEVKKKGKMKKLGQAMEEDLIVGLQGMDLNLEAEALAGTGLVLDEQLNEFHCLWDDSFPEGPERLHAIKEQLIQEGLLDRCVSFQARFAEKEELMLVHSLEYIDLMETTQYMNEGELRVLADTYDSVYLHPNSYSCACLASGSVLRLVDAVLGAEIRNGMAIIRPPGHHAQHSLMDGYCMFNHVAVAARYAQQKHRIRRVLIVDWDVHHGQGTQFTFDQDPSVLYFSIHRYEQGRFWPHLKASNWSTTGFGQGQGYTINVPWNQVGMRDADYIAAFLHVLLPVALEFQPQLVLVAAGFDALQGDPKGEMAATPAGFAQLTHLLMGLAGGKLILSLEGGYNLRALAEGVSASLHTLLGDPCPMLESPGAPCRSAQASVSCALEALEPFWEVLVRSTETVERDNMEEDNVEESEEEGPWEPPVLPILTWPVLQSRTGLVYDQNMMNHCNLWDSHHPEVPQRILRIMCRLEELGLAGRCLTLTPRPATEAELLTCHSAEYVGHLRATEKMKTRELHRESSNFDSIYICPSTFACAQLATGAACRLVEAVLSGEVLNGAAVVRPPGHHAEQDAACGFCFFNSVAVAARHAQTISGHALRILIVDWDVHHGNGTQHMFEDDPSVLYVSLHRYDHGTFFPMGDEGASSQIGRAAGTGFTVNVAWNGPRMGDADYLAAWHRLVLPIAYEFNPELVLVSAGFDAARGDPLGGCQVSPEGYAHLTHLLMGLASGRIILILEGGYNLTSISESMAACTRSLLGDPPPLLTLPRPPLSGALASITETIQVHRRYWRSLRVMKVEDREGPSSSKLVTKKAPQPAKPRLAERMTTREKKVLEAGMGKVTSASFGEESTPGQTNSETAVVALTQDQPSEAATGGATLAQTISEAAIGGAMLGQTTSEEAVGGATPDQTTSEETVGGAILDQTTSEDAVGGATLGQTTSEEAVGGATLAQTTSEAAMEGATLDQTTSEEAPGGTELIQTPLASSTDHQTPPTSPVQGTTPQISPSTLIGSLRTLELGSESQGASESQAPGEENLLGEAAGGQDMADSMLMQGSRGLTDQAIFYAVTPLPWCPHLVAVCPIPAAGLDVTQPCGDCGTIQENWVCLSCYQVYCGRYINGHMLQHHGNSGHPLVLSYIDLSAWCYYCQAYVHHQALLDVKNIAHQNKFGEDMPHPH
The data set is described as follows: Enzymatic screening on recombinant human HDAC6. The conditions noted are these: Table 2; read-out: HDAC6 IC50. The data set is classed as biochemical. Put shortly:
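Recombinant human HDAC isoforms were incubated with compound at 30 °C for isoform-specific times. Fluor de Lys, Fluor de Lys-Green or trifluoroacetyl-lysine substrate in Tris-HCl pH 8 buffer with NaCl, Tween-20 and glycerol was then added, followed by reaction at 30 °C.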

Data set [1] relates to B 697 promyelocytic cell line. The data set is described as follows: Cytotoxicity on 697 cell line (CellTiter 96). The conditions noted are these: 72 hours incubation, read-out: 697 TOXICITY
The data set is classed as cell-based. How it is done: Cytotoxic activity was evaluated on B 697 […] cell line for all synthesized compounds and on peripheral blood mononuclear cells (PBMCs) for compounds showing a good potency/selectivity profile.
Cells were seeded in plate (2×10^4 cells per well for 697, 5×10^5 cells per well for PBMCs). The test compounds (concentrations from 1.5 nM to 10000 nM for PBMCs and from 1 nM to 10000 nM for 697) were added after 24 hours and incubated 72 hours. The molecules cytotoxic activity was evaluated using CellTiter 96© Aqueous One Solution Cell Proliferation Assay (Promega), which measures the mitochondria function, following the manufacturer's instructions.

Data set [2] is described as follows: Stability to Phase I metabolism in rat S9 liver fraction. The data set is classed as in vitro ADME. Conditions: after 90 min, 37° C. Put shortly:
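Compounds were incubated with rat or human liver S9 fraction at 37 °C for up to 90 min. Reactions were quenched on ice with acidified acetonitrile and analysed by HPLC-UV or LC-MS/MS. Percent remaining versus time zero and intrinsic clearance were calculated.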

The next data set in a line: Stability in rat plasma. The data set is classed as in vitro ADME. The conditions noted are these: after 4 hours, 37° C. As for the experimental part:
In order to evaluate the stability to circulating enzymes, test compounds were incubated in human and rat plasma at 37° C. in a thermostated oscillating bath. Each test compound was incubated at μM (50 μM when the samples were analysed by UV/HPLC, 1 or 2 μM when the samples were analysed by LC-MS/MS) concentration for 0, 15, 30 min and 1, 2 and 4 hours. The reaction was stopped placing tubes on ice bath and adding acidified acetonitrile. After centrifugation for 10 minutes at 14000 rpm, an aliquot of the supernatant was diluted with water, filtered with 0.45 μm syringe filters and injected in HPLC-UV or in LC-MS/MS. The percentages of amount remaining at the various times of incubation with respect to initial amount were calculated. The half-life in plasma was also calculated.

With `Cn1c(Sc2c(F)cc(C(=O)NO)cc2F)nnc1C(C)(C)c1ccccc1` [comp. 4, 3,5-difluoro-N-hydroxy-4-((4-methyl-5-(2-phenylpropan-2-yl)-4H-1,2,4-triazol-3-yl)thio)benzamide], the pIC50 at recombinant human HDAC6 was 7.70; in data set [1], less than 5.00. Besides, the “residual percentage in rat S9 fraction” value in data set [2] was 34%. Besides, the “residual percentage in rat plasma” value in the data set “Stability in rat plasma” is 106%.
In the same order, the values of `O=C(NO)c1cc(F)c(Cn2nnnc2-c2scc3c2OCCO3)c(F)c1` [comp. 5, 4-((5-(2,3-dihydrothieno[3,4-b][1,4]dioxin-5-yl)-1H-tetrazol-1-yl)methyl)-3,5-difluoro-N-hydroxybenzamide] are 7.77, 4.05, 36% and 97%.
As to `O=C(NO)c1ccc(Cn2nnc(-c3ccco3)n2)cc1` [comp. 12, 4-((5-(furan-2-yl)-2H-tetrazol-2-yl)methyl)-N-hydroxybenzamide], the results for the pIC50 (on recombinant human HDAC6; in data set [1]) were 8.40 and less than 5.00, respectively. Further, the “residual percentage in rat S9 fraction” value in data set [2] is 44%. Further, the “residual percentage in rat plasma” value in the data set “Stability in rat plasma” is listed as 87%.
For `Cn1c(Sc2ccc(C(=O)NO)cc2)nnc1C1CCN(C(=O)OC(C)(C)C)CC1` [comp. 82, tert-butyl 4-[5-[4-(hydroxycarbamoyl)phenyl]sulfanyl-4-methyl-1,2,4-triazol-3-yl]piperidine-1-carboxylate], the pIC50 on recombinant human HDAC6 was 7.57; in data set [1] it was 5.19.
`O=C(NO)c1cc(F)c(Cn2nnnc2-c2nccc3ccccc23)c(F)c1` [comp. 94, 3,5-difluoro-4-[[5-(1-isoquinolyl)tetrazol-1-yl]methyl]benzenecarbohydroxamic acid]: the pIC50 on recombinant human HDAC6 was 8.15; in data set [1] it was 6.04. Further, the “residual percentage in rat S9 fraction” value in data set [2] amounted to 22%. The “residual percentage in rat plasma” value in the data set “Stability in rat plasma” stood at 75%.
On to `Cn1c(Sc2c(F)cc(C(=O)NO)cc2F)nnc1-c1nccc2ccccc12` [comp. 121, 3,5-difluoro-4-[[5-(1-isoquinolyl)-4-methyl-1,2,4-triazol-3-yl]sulfanyl]benzenecarbohydroxamic acid], for which the pIC50 on recombinant human HDAC6 is 7.92; in data set [1] it was 5.23. For the same compound, in data set [2], the “residual percentage in rat S9 fraction” value is listed as 25%. For the same compound, the “residual percentage in rat plasma” value in the data set “Stability in rat plasma” worked out at 100%.
As to `Cn1c(Sc2c(F)cc(C(=O)NO)cc2F)nnc1-c1ccc2ccccc2n1` [comp. 122, 3,5-difluoro-4-[[4-methyl-5-(2-quinolyl)-1,2,4-triazol-3-yl]sulfanyl]benzenecarbohydroxamic acid], the pIC50 is 7.92 on recombinant human HDAC6 and 5.99 in data set [1]. Moreover, the “residual percentage in rat S9 fraction” value in data set [2] worked out at 47%. For the same compound, the “residual percentage in rat plasma” value in the data set “Stability in rat plasma” was 94%.
For `O=C(NO)c1cc(F)c(Sc2nnc(-c3ccncc3)n2Cc2ccco2)c(F)c1` [comp. 146, 3,5-difluoro-4-[[4-(2-furylmethyl)-5-(4-pyridyl)-1,2,4-triazol-3-yl]sulfanyl]benzenecarbohydroxamic acid], the pIC50 at recombinant human HDAC6 is 7.70; in data set [1], less than 5.00. Further, in data set [2], the “residual percentage in rat S9 fraction” value came to 59%.
As for `Cn1c(Sc2c(F)cc(C(=O)NO)cc2F)nnc1-c1cnc2ccccn12` [comp. 149, 3,5-difluoro-4-[(5-imidazo[1,2-a]pyridin-3-yl-4-methyl-1,2,4-triazol-3-yl)sulfanyl]benzenecarbohydroxamic acid], the pIC50 is 7.96 at recombinant human HDAC6 and 6.10 in data set [1]. In data set [2], the “residual percentage in rat S9 fraction” value is reported as 84%.
`COC(=O)c1ccc(Cc2nnnn2Cc2c(F)cc(C(=O)NO)cc2F)cc1` [comp. 155, methyl 4-[[1-[[2,6-difluoro-4-(hydroxycarbamoyl)phenyl]methyl]tetrazol-5-yl]methyl]benzoate]: the pIC50 was 6.76 at recombinant human HDAC6 and 4.64 in data set [1].
The like results for `O=C(O)c1ccc(Cc2nnn(Cc3ccc(C(=O)NO)cc3)n2)cc1` [comp. 158, 4-[[2-[[4-(hydroxycarbamoyl)phenyl]methyl]tetrazol-5-yl]methyl]benzoic acid] were, in that order, 6.64 and 4.77.
In the same order, the values of `O=C(O)c1ccc(Cc2nnnn2Cc2ccc(C(=O)NO)cc2)cc1` [comp. 159, 4-[[1-[[4-(hydroxycarbamoyl)phenyl]methyl]tetrazol-5-yl]methyl]benzoic acid] are 5.86 and 4.77.
The like results for `O=C(O)c1ccc(Cc2nnn(Cc3c(F)cc(C(=O)NO)cc3F)n2)cc1` [comp. 160, 4-[[2-[[2,6-difluoro-4-(hydroxycarbamoyl)phenyl]methyl]tetrazol-5-yl]methyl]benzoic acid] were, in that order, 6.94 and 4.77.
For the compound `O=C(O)c1ccc(Cc2nnnn2Cc2c(F)cc(C(=O)NO)cc2F)cc1` [comp. 161, 4-[[1-[[2,6-difluoro-4-(hydroxycarbamoyl)phenyl]methyl]tetrazol-5-yl]methyl]benzoic acid], the results for the pIC50 (at recombinant human HDAC6; in data set [1]) were 6.49 and 4.77, respectively.
In the same order, the values of `O=C(O)c1ccc(-c2nnn(Cc3ccc(C(=O)NO)cc3)n2)nc1` [comp. 162, 6-[2-[[4-(hydroxycarbamoyl)phenyl]methyl]tetrazol-5-yl]pyridine-3-carboxylic acid] are 6.86 and 4.77.
With `O=C(O)c1cccc(-c2nnn(Cc3ccc(C(=O)NO)cc3)n2)c1` [comp. 163, 3-[2-[[4-(hydroxycarbamoyl)phenyl]methyl]tetrazol-5-yl]benzoic acid], the pIC50 is 7.92 on recombinant human HDAC6 and 4.31 in data set [1].
In the same order, the values of `Nc1ccc(-c2nnnn2Cc2ccc(C(=O)NO)cc2)cc1` [comp. 170, 4-[[5-(4-aminophenyl)tetrazol-1-yl]methyl]benzenecarbohydroxamic acid] are 8.10 and 4.21.
In the case of `NCc1ccc(-c2nnnn2Cc2ccc(C(=O)NO)cc2)cc1` [comp. 174, 4-[[5-[4-(aminomethyl)phenyl]tetrazol-1-yl]methyl]benzenecarbohydroxamic acid], the pIC50 at recombinant human HDAC6 was 6.89; in data set [1], 4.30.
The like results for `COc1ccc(Cc2nnc(-c3cccs3)n2Cc2ccc(C(=O)NO)cc2)cc1OC` [comp. 185, 4-[[3-[(3,4-dimethoxyphenyl)methyl]-5-(2-thienyl)-1,2,4-triazol-4-yl]methyl]benzenecarbohydroxamic acid] were, in that order, 6.00 and 4.98.
In the same order, the values of `O=C(NO)c1ccc(Cn2c(Cc3c[nH]c4ccccc34)nnc2-c2cccs2)cc1` [compound 183, 4-((3-((1H-indol-3-yl)methyl)-5-(thiophen-2-yl)-4H-1,2,4-triazol-4-yl)methyl)-N-hydroxybenzamide] are 6.67 and 4.30.
